Assays:
[1] = In vivo tissue distribution; parameters: species or system Sprague-dawley rats; conditions: rat
Protocol: The rate of distribution to target tissues is an important feature of therapeutic molecules. Tissue distribution of exemplary compounds was performed in mixed-sex Sprague-dawley rats. Test compounds were delivered via tail vein injection (IV) and tissues were collected at Tmax (10 minutes post administration). Animals were deeply anesthetized with isoflurane and whole blood was collected from the right atrium and processed by centrifugation to produce plasma. Animals were then fully perfused with PBS administered to the left ventricle to prevent blood contamination of tissues.
Tissues were collected and homogenized, and compound content in the target tissue was quantified by LC-MS/MS. Tissue distribution rates were determined by dividing the tissue concentration of compound by the plasma concentration and multiplying by 100.

[2] = tested on: scopolamine-induced spatial memory deficit in rats; assay: Scopolamine-induced spatial memory deficit in the Morris water maze (compound 1a); format: in vivo; conditions: rat, scopolamine 2 mg/kg IP, escape latency over 5 days, post-test p-value
Protocol: Exemplary compound 1a was evaluated for its ability to reverse chemically-induced spatial memory deficits in rats in the Morris water maze. The water maze consists of a large round tank (diameter 1.5 m) filled with 23-26° C. water to a depth of −30 cm and the water was clouded with white paint. A round platform was fixed such that it rested 2-3 cm below the surface of the water. High-contrast visual cues were placed around the tank to aid spatial orientation of test animals. Testing consisted of placing an animal into the water facing the tank wall at one of three randomly assigned starting locations and allowing the animal to swim and search for the hidden platform for up to 90 seconds. The time taken for the animal to locate the platform was recorded as the escape latency. Animals were tested 5 times per day with a 30 second rest period between trials. Testing was completed for a total of 5 consecutive days.
Animals were divided into groups (N=12 per group) depending on treatment. Control animals received only empty vehicle. Scopolamine groups received 2 mg/kg scopolamine dissolved in sterile saline by intraperitoneal (IP) injection 30 minutes prior to testing. Test compound groups received test compound at various concentrations by oral gavage (PO) dissolved in 78% sterile saline, 20% polyethylene glycol (PEG-400), and 2% DMSO 40 minutes prior to testing. Escape latencies were recorded for each animal for 5 trials each day for 5 consecutive days. Changes in escape latency curves were statistically analyzed by 2-way ANOVA with Bonferoni post-test.

[3] = tested on: scopolamine-induced spatial memory deficit in rats; assay: Scopolamine-induced spatial memory deficit in the Morris water maze (compounds 2a and 6a); format: in vivo; conditions: rat, scopolamine 3 mg/kg IP, escape latency over 8 days, post-test p-value
Protocol: Exemplary compounds 2a and 6a were evaluated for their ability to reverse chemically-induced spatial memory deficits in rats in the Morris water maze. The water maze consists of a large round tank (diameter 2.1 m) filled with 26-28° C. water to a depth of −30 cm and the water was clouded with white paint. A round platform (13 cm diameter) was fixed such that it rested 2-3 cm below the surface of the water. High-contrast visual cues were placed around the tank to aid spatial orientation of test animals. Testing consisted of placing an animal into the water facing the tank wall at one of three randomly assigned starting locations and allowing the animal to swim and search for the hidden platform for up to 120 seconds. The time taken for the animal to locate the platform was recorded as the escape latency. Animals were tested 5 times per day with a 30 second rest period between trials. Testing was completed for a total of 8 consecutive days.
Animals were divided into groups (N=8 per group) depending on treatment. Control animals received only empty vehicle. Scopolamine groups received 3 mg/kg scopolamine dissolved in sterile saline by intraperitoneal (IP) injection 30 minutes prior to testing. Test compound groups received test compound at various concentrations by oral gavage (PO) dissolved in 48% sterile saline, 50% polyethylene glycol (PEG-400), and 2% DMSO 40 minutes prior to testing. Escape latencies were recorded for each animal for 5 trials each day for 8 consecutive days. Changes in escape latency curves were statistically analyzed by 2-way ANOVA with Bonferoni post-test.

## CCC(C)CN1CC2N(C(=O)c3ccc(F)cc3)CCC(=O)N2C(C)C1=O (centres unmarked) [Compound 11, 1-(4-fluorobenzoyl)-6-methyl-8-(2-methylbutyl)hexahydro-4H-pyrazino[1,2-a]pyrimidine-4,7(6H)-dione]
[1]
  Tissue Distribution (% Plasma exposure at 10 min post IV dose) Brain: ++ (++ indicates distribution between 5 and 39%)
  Tissue Distribution (% Plasma exposure at 10 min post IV dose) Cerebellum: + (+ indicates distribution between 0.05 and 5%)
  Tissue Distribution (% Plasma exposure at 10 min post IV dose) Cortex: + (+ indicates distribution between 0.05 and 5%)
  Tissue Distribution (% Plasma exposure at 10 min post IV dose) Hippocampus: + (+ indicates distribution between 0.05 and 5%)
  Tissue Distribution (% Plasma exposure at 10 min post IV dose) Sciatic Nerve: ++ (++ indicates distribution between 5 and 39%)

## CCC(C)CN1CC2N(C(=O)c3ccc(C(F)(F)F)cc3)CCC(=O)N2[C@@H](C)C1=O (some centres unmarked) [Compound 1a]
[2]; 0.5 mg/kg PO
  Cognitive Improvement: + (+ indicates post-test p-value between 0.06 and 0.05)
[2]; 2 mg/kg PO
  Cognitive Improvement: − (− indicates post-test p-value above 0.06)
[2]; 8 mg/kg PO
  Cognitive Improvement: − (− indicates post-test p-value above 0.06)
[1]
  Tissue Distribution (% Plasma exposure at 10 min post IV dose) Brain: ++ (++ indicates distribution between 5 and 39%)
  Tissue Distribution (% Plasma exposure at 10 min post IV dose) Cerebellum: ++ (++ indicates distribution between 5 and 39%)
  Tissue Distribution (% Plasma exposure at 10 min post IV dose) Cortex: ++ (++ indicates distribution between 5 and 39%)
  Tissue Distribution (% Plasma exposure at 10 min post IV dose) Hippocampus: ++ (++ indicates distribution between 5 and 39%)

## CCC(C)CN1CC2N(C(=O)c3ccc(OC(F)F)cc3)CCC(=O)N2[C@@H](C)C1=O (some centres unmarked) [Compound 2a]
[1]
  Tissue Distribution (% Plasma exposure at 10 min post IV dose) Brain: ++ (++ indicates distribution between 5 and 39%)
  Tissue Distribution (% Plasma exposure at 10 min post IV dose) Cerebellum: + (+ indicates distribution between 0.05 and 5%)
  Tissue Distribution (% Plasma exposure at 10 min post IV dose) Cortex: ++ (++ indicates distribution between 5 and 39%)
  Tissue Distribution (% Plasma exposure at 10 min post IV dose) Hippocampus: ++ (++ indicates distribution between 5 and 39%)
  Tissue Distribution (% Plasma exposure at 10 min post IV dose) Muscle: ++++ (++++ indicates distribution above 70%)
  Tissue Distribution (% Plasma exposure at 10 min post IV dose) Sciatic Nerve: ++++ (++++ indicates distribution above 70%)
[3]; 0.1 mg/kg PO
  Cognitive Improvement: − (− indicates post-test p-value above 0.06)
[3]; 1 mg/kg PO
  Cognitive Improvement: +++ (+++ indicates post-test p-value below 0.01)
[3]; 10 mg/kg PO
  Cognitive Improvement: − (− indicates post-test p-value above 0.06)

## CCC(C)CN1CC2N(Cc3ccc(OC(F)F)cc3)CCC(=O)N2[C@@H](C)C1=O (some centres unmarked) [Compound 6a]
[1]
  Tissue Distribution (% Plasma exposure at 10 min post IV dose) Brain: ++ (++ indicates distribution between 5 and 39%)
  Tissue Distribution (% Plasma exposure at 10 min post IV dose) Cerebellum: ++ (++ indicates distribution between 5 and 39%)
  Tissue Distribution (% Plasma exposure at 10 min post IV dose) Cortex: ++ (++ indicates distribution between 5 and 39%)
  Tissue Distribution (% Plasma exposure at 10 min post IV dose) Hippocampus: ++ (++ indicates distribution between 5 and 39%)
  Tissue Distribution (% Plasma exposure at 10 min post IV dose) Muscle: ++++ (++++ indicates distribution above 70%)
  Tissue Distribution (% Plasma exposure at 10 min post IV dose) Sciatic Nerve: ++++ (++++ indicates distribution above 70%)
[3]; 1 mg/kg PO
  Cognitive Improvement: − (− indicates post-test p-value above 0.06)
[3]; 10 mg/kg PO
  Cognitive Improvement: ++ (++ indicates post-test p-value between 0.05 and 0.01)

## CC1C(=O)N(CCC2CCC2)CC2N(C(=O)c3ccc(C(F)(F)F)cc3)CCC(=O)N12 (centres unmarked) [Compound 20]
[1]
  Tissue Distribution (% Plasma exposure at 10 min post IV dose) Brain: ++++ (++++ indicates distribution above 70%)
  Tissue Distribution (% Plasma exposure at 10 min post IV dose) Cerebellum: ++++ (++++ indicates distribution above 70%)
  Tissue Distribution (% Plasma exposure at 10 min post IV dose) Cortex: ++++ (++++ indicates distribution above 70%)
  Tissue Distribution (% Plasma exposure at 10 min post IV dose) Hippocampus: +++ (+++ indicates distribution between 40 and 69%)
  Tissue Distribution (% Plasma exposure at 10 min post IV dose) Sciatic Nerve: ++++ (++++ indicates distribution above 70%)

## CCC(C)CN1CC2N(Cc3ccc(O)nc3)CCC(=O)N2[C@@H](C)C1=O (some centres unmarked) [Compound 7a]
[1]
  Tissue Distribution (% Plasma exposure at 10 min post IV dose) Brain: + (+ indicates distribution between 0.05 and 5%)
  Tissue Distribution (% Plasma exposure at 10 min post IV dose) Cerebellum: + (+ indicates distribution between 0.05 and 5%)
  Tissue Distribution (% Plasma exposure at 10 min post IV dose) Cortex: + (+ indicates distribution between 0.05 and 5%)
  Tissue Distribution (% Plasma exposure at 10 min post IV dose) Hippocampus: + (+ indicates distribution between 0.05 and 5%)
  Tissue Distribution (% Plasma exposure at 10 min post IV dose) Muscle: ++ (++ indicates distribution between 5 and 39%)
  Tissue Distribution (% Plasma exposure at 10 min post IV dose) Sciatic Nerve: ++++ (++++ indicates distribution above 70%)

## CC1C(=O)N(CC2CCC2)CC2N(C(=O)c3ccc(OC(F)F)cc3)CCC(=O)N12 (centres unmarked) [Compound 14]
[1]
  Tissue Distribution (% Plasma exposure at 10 min post IV dose) Brain: ++ (++ indicates distribution between 5 and 39%)
  Tissue Distribution (% Plasma exposure at 10 min post IV dose) Cerebellum: ++ (++ indicates distribution between 5 and 39%)
  Tissue Distribution (% Plasma exposure at 10 min post IV dose) Cortex: ++ (++ indicates distribution between 5 and 39%)
  Tissue Distribution (% Plasma exposure at 10 min post IV dose) Hippocampus: ++ (++ indicates distribution between 5 and 39%)
  Tissue Distribution (% Plasma exposure at 10 min post IV dose) Sciatic Nerve: ++ (++ indicates distribution between 5 and 39%)

## C=CCCN1CC2N(C(=O)c3ccc(C(F)(F)F)cc3)CCC(=O)N2C(C)C1=O (centres unmarked) [Compound 22]
[1]
  Tissue Distribution (% Plasma exposure at 10 min post IV dose) Brain: ++ (++ indicates distribution between 5 and 39%)
  Tissue Distribution (% Plasma exposure at 10 min post IV dose) Cerebellum: ++ (++ indicates distribution between 5 and 39%)
  Tissue Distribution (% Plasma exposure at 10 min post IV dose) Cortex: ++ (++ indicates distribution between 5 and 39%)
  Tissue Distribution (% Plasma exposure at 10 min post IV dose) Hippocampus: ++ (++ indicates distribution between 5 and 39%)
  Tissue Distribution (% Plasma exposure at 10 min post IV dose) Sciatic Nerve: +++ (+++ indicates distribution between 40 and 69%)

## CCC(C)CN1CC2N(C(=O)c3ccc(C(F)(F)F)c(Cl)c3)CCC(=O)N2C(C)C1=O (centres unmarked) [Compound 12, 1-(3-chloro-4-(trifluoromethyl)benzoyl)-6-methyl-8-(2-methylbutyl)hexahydro-4H-pyrazino[1,2-a]pyrimidine-4,7(6H)-dione]
[1]
  Tissue Distribution (% Plasma exposure at 10 min post IV dose) Brain: ++ (++ indicates distribution between 5 and 39%)
  Tissue Distribution (% Plasma exposure at 10 min post IV dose) Cerebellum: ++ (++ indicates distribution between 5 and 39%)
  Tissue Distribution (% Plasma exposure at 10 min post IV dose) Cortex: ++ (++ indicates distribution between 5 and 39%)
  Tissue Distribution (% Plasma exposure at 10 min post IV dose) Hippocampus: ++ (++ indicates distribution between 5 and 39%)
  Tissue Distribution (% Plasma exposure at 10 min post IV dose) Sciatic Nerve: +++ (+++ indicates distribution between 40 and 69%)

## CCC(C)CN1CC2N(Cc3ccc(C(F)(F)F)cc3)CCC(=O)N2[C@@H](C)C1=O (some centres unmarked) [Compound 5a]
[1]
  Tissue Distribution (% Plasma exposure at 10 min post IV dose) Brain: ++++ (++++ indicates distribution above 70%)
  Tissue Distribution (% Plasma exposure at 10 min post IV dose) Cerebellum: ++++ (++++ indicates distribution above 70%)
  Tissue Distribution (% Plasma exposure at 10 min post IV dose) Cortex: ++++ (++++ indicates distribution above 70%)
  Tissue Distribution (% Plasma exposure at 10 min post IV dose) Hippocampus: ++++ (++++ indicates distribution above 70%)

From patent US20240025903A1, “Bicyclic Compounds and Uses Thereof for the Treatment of Diseases” (Athira Pharma, Inc., priority 2020, published 2024)
